The test has as its system HEK-293T NF-kB luciferase reporter, luminescence counterscreen. Kind of test: NF-kB reporter suppression in HEK-293T cells – luminescence, B-cell screen hits, counter-screen for BCR NF-kB inhibitor project, dose response (AID 489022). Background: Counterscreens check selectivity or assay interference.

Molecules are shown by their SMILES. Activity calls are given as the source filed them. The rule behind the calls is not given here.

In general, IC50 refers to the point on the concentration scale where inhibition reaches its midpoint. In the case of `COc1ccc(-c2noc(N3CCC(C(=O)Nc4ccc(F)cc4F)CC3)n2)cc1`, the IC50 is > 80 µM (inactive).

On to `CN1C(=O)CC(c2ccco2)Sc2ccccc21` (stereo not given), for which the IC50 was > 80 µM (inactive).

For the compound `COc1cc(OC)cc(-c2cc3nc(C)c(CCC(=O)Nc4nc(C)cs4)c(C)n3n2)c1`, the IC50 is > 80 µM (inactive).

On to `COc1ccc(/C=C2/SC(=S)N(CCC(=O)O)C2=O)cc1`, for which the IC50 is 24.3 µM (inactive).

`C(=N\Nc1nc(Nc2ccccc2)nc(Nc2ccccc2)n1)/c1cccnc1`: the IC50 is > 80 µM (inactive).

For the compound `Cc1cc(OCC(=O)N2CCC(C(N)=O)CC2)c2c3c(c(=O)oc2c1)CCCC3`, the IC50 was > 80 µM (inactive).

With `COc1ccc(NC(=S)NCc2ccccc2)c(OC)c1`, the IC50 is > 80 µM (inactive).

For `C=CCOC(=O)COc1cc(C)cc2oc(=O)c3c(c12)CCC3`, the IC50 was > 80 µM (inactive).

Take `CC1=CC(C)(C)Nc2ccc(OC(=O)C(C)N3C(=O)c4ccccc4C3=O)cc21` (stereo not given): the IC50 was 11.5 µM.

On to `COc1ccc(/C=C\C(=O)O[C@@H]2C(O)C(O[C@@H]3OC(C)[C@H](O[C@@H]4OCC(O[C@H]5O[C@H](CO)[C@@H](O)C(O)C5O)C(O)C4O)C(O)C3O)[C@H](OC(=O)[C@]34CCC(C)(C)C[C@@H]3C3=CCC5[C@@]6(C)CC(O)C(O[C@@H]7OC(CO)C(O)[C@H](O)[C@H]7O)[C@@](C)(C(=O)O)C6CC[C@@]5(C)[C@]3(CO)CC4)O[C@H]2C)cc1` (stereo not given in full), for which the IC50 is 45.7 µM (inactive).

In the case of `Cn1c(=O)cc(Nc2ccccc2)c2c(=O)n(-c3ccccc3)c(=O)n(-c3ccccc3)c21`, the IC50 is 79.1 µM (inactive).

On to `Cc1[nH]c2ccccc2c1/C=N/Nc1nc(Nc2ccccc2)nc(N2CCOCC2)n1`, for which the IC50 was > 80 µM (inactive).

With `Cc1ccc(S(=O)(=O)N2CCCCC2CCNC(=O)C(=O)NCc2ccncc2)cc1` (stereo not given), the IC50 is 38.4 µM (inactive).

`CCOC(=O)c1nn(-c2ccccc2)c(C#N)c1NC(=O)c1nn(CC)cc1Br`: the IC50 was > 80 µM (inactive).

Turning to `Cc1c(CCO)c(=O)oc2n[nH]c(-c3ccccc3)c12`, the IC50 was > 80 µM (inactive).

`CCOC(=O)C1CCN(c2ncnc3c2cnn3-c2ccc(Cl)cc2)CC1`: the IC50 is 1.25 µM.

For the compound `O=C(CCCN1C(=O)S/C(=C\C=C\c2ccccc2)C1=O)Nc1ccc(O)cc1`, the IC50 is > 80 µM (inactive).

For `Cn1c(=O)n(C)c2cc(/C=C3/NC(=O)N(Cc4ccccc4)C3=O)ccc21`, the IC50 was > 80 µM (inactive).

As to `CCOC(=O)Cc1csc(NC(=S)NC(=O)c2ccc(Cl)cc2)n1`, the IC50 is > 80 µM (inactive).

As to `ClCc1nnc(-c2ccccc2)o1`, the IC50 is > 80 µM (inactive).

For the compound `COc1ccc(CC(=O)Nc2cccc(-c3ccc4nnc(C)n4n3)c2)cc1`, the IC50 was 41.8 µM (inactive).

On to `CNC(=O)c1cc(Nc2nnc(-c3ccc(O)cc3)c3ccccc23)ccc1OC`, for which the IC50 was > 80 µM (inactive).

`Cc1ccc(/C=C2\SC(=S)N(CCCC(=O)Nc3ccccn3)C2=O)cc1`: the IC50 is 32.1 µM (inactive).

Take `CCCCOc1ccc(NC(=O)C(=O)NCCCn2ccnc2)cc1`: the IC50 was 44.6 µM (inactive).

Consider `COc1ccc(N(CC(=O)N2CCN(c3ccc(Cl)cc3)CC2)S(=O)(=O)c2c(C)n[nH]c2C)cc1`, for which the IC50 was 15.3 µM.

As for `Cc1ccc(C)c(-n2nnnc2Sc2nnnn2-c2ccccc2)c1`, the IC50 is 6.7 µM.

As for `O=C(Oc1cccc(/C=N/Nc2nc(Nc3ccccc3)nc(N3CCOCC3)n2)c1)c1ccco1`, the IC50 is > 80 µM (inactive).

`O=[N+]([O-])c1ccc(Sc2cc[n+]([O-])c3ccccc23)c([N+](=O)[O-])c1`: the IC50 was > 80 µM (inactive).

As to `Cc1cc(OC(=O)c2ccccc2Cl)cc(=O)n1C`, the IC50 was > 80 µM (inactive).

For the compound `COc1ccc(-c2noc(CCCC(=O)Nc3ccc(C(N)=O)cc3)n2)cc1`, the IC50 is 27.3 µM (inactive).

`CN1C(=O)c2cccc3c(S(=O)(=O)Nc4ccccc4F)ccc1c23`: the IC50 is 69.7 µM (inactive).

With `CCOC(=O)Cc1csc(NC(=S)NC(=O)c2ccc(C)cc2)n1`, the IC50 was > 80 µM (inactive).

Take `CNC(=O)CSc1nc2nn(-c3ccccc3)c(=O)c-2c2n1CCCCC2`: the IC50 is > 80 µM (inactive).

Consider `COc1ccc(/C=C2\SC(=S)N(CCC(=O)Nc3ccc(O)cc3)C2=O)cc1`, for which the IC50 is > 80 µM (inactive).

`CCC(CC)C(=O)Nc1ccc(Sc2ccc([N+](=O)[O-])cc2)cc1`: the IC50 was 13.7 µM.

Consider `O=C(NCCC1CCCCN1S(=O)(=O)c1ccc(Cl)cc1)C(=O)NCc1ccncc1` (stereo not given), for which the IC50 is 20.4 µM (inactive).

Turning to `O=C(Nc1nc2c(Br)cc(Br)cc2c(=O)s1)c1ccco1`, the IC50 was > 80 µM (inactive).

For `CCC(=O)N1c2ccccc2[C@@H](N(C(C)=O)c2ccccc2)C[C@H]1C`, the IC50 was 39.2 µM (inactive).

`CC(C)Cn1c([N+](=O)[O-])nc2c1c(=O)[nH]c(=O)n2C`: the IC50 was 37 µM (inactive).

For the compound `C=CCOc1ccc(/C=C2\SC(=S)N(CCC(=O)O)C2=O)cc1`, the IC50 was 51.4 µM (inactive).

In the case of `COc1ccc(C(=O)N/N=C/c2ccc(OC)c(CN3CCCc4ccccc43)c2)cc1`, the IC50 was > 80 µM (inactive).

In the case of `CNC(=O)CCc1nc(-c2ccc(C(C)(C)C)cc2)no1`, the IC50 is 56.4 µM (inactive).

Turning to `CCOc1ccc(/C=C2\SC(=S)N(CCC(=O)Nc3ccc(C(=O)O)cc3)C2=O)cc1`, the IC50 was > 80 µM (inactive).

Consider `CCOc1ccc(-c2noc(CCC(=O)O)n2)cc1`, for which the IC50 is 8.98 µM.

Take `CC1(c2nnc(-c3cccc(Cl)c3)o2)CC(c2cccc(Cl)c2)=NO1` (stereo not given): the IC50 was 29.9 µM (inactive).

Take `O=C(Nc1cccc(Br)c1)c1ccc2c(c1)SC1=NS(=O)(=O)CCN12`: the IC50 was 10.5 µM.

`Cc1nc2cc(-c3ccc(Cl)cc3)nn2c(C)c1CCC(=O)NCc1ccco1`: the IC50 is > 80 µM (inactive).

Regarding `Cc1c(CC(=O)NCCCC(=O)O)c(=O)oc2cc3c(cc12)CCC(C)(C)O3`, the IC50 was 3.39 µM.

`COc1cc(Br)c(C(=O)c2nccc3cc(OC)c(OC)cc23)cc1OC`: the IC50 was 27.5 µM (inactive).

On to `Cc1ccc(/C=C2\SC(=S)N(CCCC(=O)NNC(=O)c3ccccc3O)C2=O)cc1`, for which the IC50 is 5.48 µM.

With `COc1ccccc1/C=C1\SC(=S)N(CCC(=O)NC2=NCCS2)C1=O`, the IC50 was > 80 µM (inactive).

As for `COc1ccc(/C=C2\SC(=O)N(CCCC(=O)Nc3ccc(C(=O)O)cc3)C2=O)cc1OC`, the IC50 was > 80 µM (inactive).

Regarding `Cc1ccc(Nc2nc(N3CCOCC3)nc(N3CCOCC3)n2)cc1C`, the IC50 was 51.4 µM (inactive).

Regarding `COC(=O)c1[nH]c2ccc(C)cc2c1NC(=O)Nc1ccccc1OC`, the IC50 is > 80 µM (inactive).

Regarding `Cc1ccc(C(=O)NNC(=O)CCCN2C(=O)/C(=C/c3ccccc3Cl)SC2=S)cc1`, the IC50 was 30.8 µM (inactive).

`Cc1nn(-c2ccc(N3CCCCC3)nn2)c(C)c1CCC(=O)Nc1ccccc1F`: the IC50 was 73.3 µM (inactive).

For `O=C1CCCc2c1[nH]c1ccc(CN3CCCCC3)cc21`, the IC50 was > 80 µM (inactive).

For the compound `CCOC(=O)C(=CNc1cc(C)ccc1C)C(=O)OCC`, the IC50 was 18.9 µM.

Regarding `CC(C)[C@H](N)c1nnc(SCC(=O)c2ccc(Cl)cc2)o1`, the IC50 was > 80 µM (inactive).

`O=C(CCCN1C(=O)/C(=C/c2ccccc2Cl)SC1=S)NNC(=O)c1ccc(Cl)cc1Cl`: the IC50 was > 80 µM (inactive).

`CC(C)c1[nH]nc2c1C(c1ccco1)C(C#N)=C(N)O2` (stereo not given): the IC50 was > 80 µM (inactive).

`O=C(O)CCn1c(O)c(C=C2N=c3ccccc3=N2)sc1=S`: the IC50 is 70.8 µM (inactive).

`CC1=CC(C)(C)Nc2ccc(OC(=O)c3ccco3)cc21`: the IC50 is 16.3 µM.

`COc1cccc(/C=C2\SC(=S)N(CCCC(=O)NC3=NCCS3)C2=O)c1`: the IC50 was 69.1 µM (inactive).

On to `O=C(CCl)N(c1ccc(Cl)cc1)c1c[nH]c2ccccc12`, for which the IC50 was 10.8 µM.

Consider `CCCc1nc2c(C)cc(-c3nc4ccccc4n3C)cc2n1Cc1ccc(-c2ccccc2C(=O)O)cc1`, for which the IC50 was > 80 µM (inactive).

As for `CCOCCCNc1nc2c(C)cccn2c(=O)c1/C=C1\SC(=S)N(C(C)CC)C1=O` (stereo not given), the IC50 was > 80 µM (inactive).

Regarding `CCn1c(CN2CCN(c3ccc(Cl)cc3)CC2)nc2ccccc21`, the IC50 is 9.25 µM.

`O=C(CCCN1C(=O)S/C(=C\c2ccccc2)C1=O)NNC(=O)c1ccccc1O`: the IC50 was 1.64 µM.

For `CC(C)C(c1nnnn1Cc1ccccc1)N(Cc1ccco1)Cc1cccs1` (stereo not given), the IC50 is 8.89 µM.

For the compound `COc1cc(/C(C)=N\NC(N)=S)cc(OC)c1OC`, the IC50 is > 80 µM (inactive).

Take `CC(C)N1C(=O)S/C(=C/c2ccc3c(c2)n(C)c(=O)n3C)C1=O`: the IC50 was > 80 µM (inactive).

For the compound `CC(=O)C1=NN(c2ccccc2)C(c2cccs2)N1c1ccc(N(C)C)cc1` (stereo not given), the IC50 is 5.42 µM.

Consider `Cc1ccc(S(=O)(=O)Nc2ccc3c(c2)n(C)c(=O)n3C)cc1`, for which the IC50 is 65.2 µM (inactive).

For `O=C(CN1C(=O)c2ccccc2S1(=O)=O)c1ccc(OC(F)F)cc1`, the IC50 is 5.26 µM.

For the compound `O=C(O)CCSc1ncnc2sc(-c3ccccc3)cc12`, the IC50 was 11.8 µM.

As to `CCOC(=O)CNC(=O)CSc1nnc(NC(=O)c2ccc(C)cc2)s1`, the IC50 is 7.13 µM.

Take `O=C(O)COc1ccc(-c2nccc(-c3ccccn3)n2)cc1`: the 50% inhibitory concentration (IC50) is 13.3 µM.

Regarding `COc1ccc(-c2nc(CSCC(=O)NCc3ccco3)c(C)o2)cc1`, the IC50 is 38.5 µM (inactive).

For the compound `CCc1ccc(/C=C2\SC(=S)N(CCC(=O)NC3=NCCS3)C2=O)cc1`, the IC50 was > 80 µM (inactive).

Turning to `CCN(CC)c1ccc2cc(NC(=O)CCC(=O)O)c(=O)oc2c1`, the IC50 was 1.38 µM.

Take `CCOc1ccc(-c2nc(CSCC(=O)NCc3ccco3)c(C)o2)cc1`: the IC50 was 18.9 µM.

Regarding `COCCCNC(=O)COc1ccc(-c2nccc(-c3ccccn3)n2)cc1`, the IC50 is 48.1 µM (inactive).

For the compound `CC(C)OCCCNC(=O)c1c(N)n(/N=C/c2ccccn2)c2nc3ccccc3nc12`, the IC50 is > 80 µM (inactive).

Consider `O=c1c(C=NCCCO)c(-c2ccccc2)[nH]n1-c1nc2ccccc2s1`, for which the IC50 was > 80 µM (inactive).

Source of the values: PubChem BioAssay AID489022 (Sanford-Burnham Center for Chemical Genomics, 2010).
